Data from patent publication US20220279826A1, “OFF-FLAVOR SUPPRESSING AGENT” (AJINOMOTO CO., INC., priority 2019, published 2022).

Legend:
[1] = Sensory evaluation in Japanese noodle soup base solution with potassium chloride (0.2 g) (Experimental Example 5); settings: for off-taste suppressing effect: Japanese noodle soup base solution, potassium chloride 0.2 g; for intensity of off-tastes (bitter taste, metallic taste, harsh taste, astringent taste) derived from potassium chloride: base solution of Table 19
Description: Potassium chloride (0.2 g) was added to a commercially available Japanese noodle soup base (manufactured by Yamaki Co., Ltd.) (11.1 g), and dissolved by adding hot water (88.7 g) to prepare a base solution.
Each compound shown in the following Table 19 was added to the base solution prepared above so as to achieve the concentration (addition concentration) shown in the following Table 19 to prepare each evaluation sample.
Based on the following evaluation criteria, a panel of two experts determined by consensus the intensity of off-tastes (bitter taste, metallic taste, harsh taste, astringent taste) derived from potassium chloride in each evaluation sample, by reference to each potassium chloride aqueous solution adjusted to 0.2 wt %, 0.15 wt % or 0.1 wt %.

[2] = Sensory evaluation of off-taste suppressing effect in 0.8 wt % potassium chloride aqueous solution (Experimental Examples 1 and 2)
[3] = Sensory evaluation in ramen noodle soup solution with potassium chloride (Experimental Example 3); settings: for off-taste suppressing effect: Ramen noodle soup solution with 0.8 wt % potassium chloride; for intensity of off-tastes (bitter taste, metallic taste, harsh taste, astringent taste) derived from potassium chloride: base solutions of Tables 15 to 17 (ramen noodle soup, chicken broth, potage)
Description: (§1) As shown in the following (1) to (3) below, 0.8 wt % of potassium chloride was added to a food base powder corresponding to 0.5 wt % of sodium chloride to prepare each base solution having an off-taste derived from potassium chloride.
Potassium chloride (0.8 g) was added to a soup powder (1.1 g) of a commercially available instant ramen noodle (manufactured by SANYO FOODS Co., Ltd., trade name “Sapporo Ichiban Shouyuaji”), hot water (98.1 g) was added to dissolve the mixture to prepare a base solution (ramen noodle soup solution).
(§2) Each compound shown in the following Tables 15 to 17 was added to each base solution (ramen noodle soup solution, chicken broth solution, potage solution) so as to achieve the concentration (addition concentration) shown in the following Tables 15 to 17 to prepare each evaluation sample.
(§3) By a method similar to that in Experimental Example 1, a panel of two experts determined the intensity of off-tastes (bitter taste, metallic taste, harsh taste, astringent taste) derived from potassium chloride in each evaluation sample.

[4] = Sensory evaluation in potage solution with potassium chloride (Experimental Example 3); settings: Potage solution with 0.8 wt % potassium chloride
Description: as §1
Potassium chloride (0.8 g) was added to a commercially available powdered instant potage (manufactured by Ajinomoto Co., Inc., trade name “Knorr (registered trade mark) Cup Soup Potage”) (7.1 g), hot water (92.1 g) was added to dissolve the mixture to prepare a base solution (potage solution).
as §2, §3

[5] = Sensory evaluation in sodium acetate aqueous solution (Experimental Example 18); settings: Table 33
Description: Each compound shown in the following Table 33 was added to an aqueous solution prepared by dissolving sodium acetate (1 part by weight) and acetic acid (0.3 parts by weight) in water (98.7 parts by weight) (hereinafter at times referred to as sodium acetate aqueous solution) so as to achieve the concentration (addition concentration) shown in the following Table 33 to prepare each evaluation sample.
(§4) Based on the following evaluation criteria, a panel of four experts determined by consensus the intensity of off-tastes (bitter taste, harsh taste, astringent taste) derived from sodium acetate in each evaluation sample, by comparison with a sodium acetate aqueous solution without addition of any compound (negative control).

[6] = Sensory evaluation in 1 wt % methyl cellulose aqueous solution (Experimental Example 20); settings: Table 35
Description: Each compound shown in the following Table 35 was added to a 1 wt % methyl cellulose aqueous solution (aqueous solution prepared by dissolving methyl cellulose (1 part by weight) in water (99 parts by weight)) so as to achieve the concentration (addition concentration) shown in the following Table 35 to prepare each evaluation sample. Here, the methyl cellulose manufactured by Unitec Foods Co., Ltd. was used.
as §4, with “from methyl cellulose” for “from sodium acetate”, “a 1 wt % methyl cellulose” for “a sodium acetate”

[7] = Sensory evaluation in soy protein hamburg steak (Experimental Example 17); settings: Table 32
Description: Of the materials shown in the following Table 31, the materials of category 1 were first mixed, and the materials of category 2 were further mixed. The obtained mixture was formed into a circular shape of about 100 g per piece, and then baked at 180° C. for 2 minutes and 30 seconds for each of the front and back sides on an iron plate to produce a soy protein hamburg steak. Here, the granular soy protein manufactured by FUJI OIL CO., LTD. was used.
Each compound shown in the following Table 32 was added to soy protein hamburg steak so as to achieve the concentration (addition concentration) shown in the following Table 32 to prepare each evaluation sample.
as §4, with “five” for “four”, “soy protein” for “sodium acetate”, “soy protein hamburg steak” for “a sodium acetate aqueous solution”

[8] = Sensory evaluation in granular pea protein (Experimental Example 15); settings: Table 29
Description: Each compound shown in the following Table 29 was added to granular pea protein (manufactured by Roquette) so as to achieve the concentration (addition concentration) shown in the following Table 29 to prepare each evaluation sample.
as §4, with “pea protein” for “sodium acetate”, “granular pea protein” for “a sodium acetate aqueous solution”

[9] = 0.8 wt % potassium chloride aqueous solution, addition concentration 5 weight ppb (0.625 weight ppm with respect to potassium chloride)
[10] = 0.8 wt % potassium chloride aqueous solution, addition concentration 10 weight ppb (1.25 weight ppm with respect to potassium chloride)
[11] = 0.8 wt % potassium chloride aqueous solution, addition concentration 50 weight ppb (6.25 weight ppm with respect to potassium chloride)
[12] = 0.8 wt % potassium chloride aqueous solution, addition concentration 100 weight ppb (12.5 weight ppm with respect to potassium chloride)
[13] = in words, potassium chloride aqueous solutions, Tables 1 to 14
[14] = potassium chloride aqueous solutions, Tables 1 to 14
[15] = addition concentration 10 ppb (1.25 weight ppm with respect to potassium chloride)
[16] = addition concentration 1 ppm (125 weight ppm with respect to potassium chloride)

With `CC1=C(O)C(=O)CC1` [cyclotene] the off-taste suppressing effect ([1]; addition concentration 25 weight ppb (12.5 weight ppm with respect to potassium chloride)) was “+++ (intensity of the same level as potassium chloride aqueous solution with potassium chloride concentration of less than 0.1 wt %)”, the “intensity of off-tastes (bitter taste, metallic taste, harsh taste, astringent taste) derived from potassium chloride” value (from here on “intensity … from potassium chloride”) [1] was “decreased” and the off-taste suppressing effect ([2]; 0.8 wt % potassium chloride aqueous solution, addition concentration 1 weight ppb (0.125 weight ppm with respect to potassium chloride)) was “+ (intensity of the same level as potassium chloride aqueous solution with potassium chloride concentration of not less than 0.75 wt % and less than 0.8 wt %)”. The off-taste suppressing effect [2, 9] was “++ (intensity of the same level as potassium chloride aqueous solution with potassium chloride concentration of not less than 0.7 wt % and less than 0.75 wt %)”, the off-taste suppressing effect [2, 10] was “+++ (intensity of the same level as potassium chloride aqueous solution with potassium chloride concentration of not less than 0.65 wt % and less than 0.7 wt %)” and the off-taste suppressing effect [2, 11] was “+++ (intensity of the same level as potassium chloride aqueous solution with potassium chloride concentration of not less than 0.65 wt % and less than 0.7 wt %)”. For the same compound, the off-taste suppressing effect [2, 12] was “++ (intensity of the same level as potassium chloride aqueous solution with potassium chloride concentration of not less than 0.7 wt % and less than 0.75 wt %)”, the off-taste suppressing effect [2, 13] was “high” and the “intensity … from potassium chloride” value [2, 14] was “decreased”. For the same compound, the off-taste suppressing effect [3, 15] was “+++ (intensity of the same level as potassium chloride aqueous solution with potassium chloride concentration of not less than 0.65 wt % and less than 0.7 wt %)”, the “intensity … from potassium chloride” value [3] was “decreased” and the off-taste suppressing effect [4, 15] was “+++ (intensity of the same level as potassium chloride aqueous solution with potassium chloride concentration of not less than 0.65 wt % and less than 0.7 wt %)”. For the same compound, the “intensity of off-tastes (bitter taste, harsh taste, astringent taste) derived from sodium acetate” value (from here on “intensity of off-tastes … from sodium acetate”) [5] was “suppressed”, the “intensity of off-tastes (bitter taste, harsh taste, astringent taste) derived from methyl cellulose” value (from here on “intensity of off-tastes … from methyl cellulose”) [6] was “suppressed” and the “intensity of off-tastes (bitter taste, harsh taste, astringent taste) derived from soy protein” value (“intensity of off-tastes … from soy protein” below) [7] was “suppressed”. The “intensity of off-tastes (bitter taste, harsh taste, astringent taste) derived from pea protein” value (from here on “intensity of off-tastes … from pea protein”) [8] was “suppressed”.
For `O=Cc1ccco1` [furfural, Furfural], the off-taste suppressing effect ([1]; addition concentration 50 weight ppb (25 weight ppm with respect to potassium chloride)) was “+++ (intensity of the same level as potassium chloride aqueous solution with potassium chloride concentration of less than 0.1 wt %)”, the “intensity … from potassium chloride” value [1] was “decreased” and the off-taste suppressing effect [2, 9] was “+ (intensity of the same level as potassium chloride aqueous solution with potassium chloride concentration of not less than 0.75 wt % and less than 0.8 wt %)”. For the same compound, the off-taste suppressing effect [2, 10] was “+++ (intensity of the same level as potassium chloride aqueous solution with potassium chloride concentration of not less than 0.65 wt % and less than 0.7 wt %)”, the off-taste suppressing effect [2, 11] was “+++ (intensity of the same level as potassium chloride aqueous solution with potassium chloride concentration of not less than 0.65 wt % and less than 0.7 wt %)” and the off-taste suppressing effect [2, 12] was “+ (intensity of the same level as potassium chloride aqueous solution with potassium chloride concentration of not less than 0.75 wt % and less than 0.8 wt %)”. For the same compound, the off-taste suppressing effect [2, 13] was “high”, the “intensity … from potassium chloride” value [2, 14] was “decreased” and the off-taste suppressing effect [3, 15] was “++ (intensity of the same level as potassium chloride aqueous solution with potassium chloride concentration of not less than 0.7 wt % and less than 0.75 wt %)”. For the same compound, the “intensity … from potassium chloride” value [3] was “decreased”, the off-taste suppressing effect [4, 15] was “++ (intensity of the same level as potassium chloride aqueous solution with potassium chloride concentration of not less than 0.7 wt % and less than 0.75 wt %)” and the “intensity of off-tastes … from sodium acetate” value [5] was “suppressed”. For the same compound, the “intensity of off-tastes … from methyl cellulose” value [6] was “suppressed”, the “intensity of off-tastes … from soy protein” value [7] was “suppressed” and the “intensity of off-tastes … from pea protein” value [8] was “suppressed”.
For `CCC(=O)O` [propionic acid], the off-taste suppressing effect ([1]; addition concentration 1000 weight ppb (500 weight ppm with respect to potassium chloride)) was “++ (intensity of the same level as potassium chloride aqueous solution with potassium chloride concentration of not less than 0.1 wt % and less than 0.15 wt %)”, the “intensity … from potassium chloride” value [1] was “decreased” and the off-taste suppressing effect [2, 12] was “+ (intensity of the same level as potassium chloride aqueous solution with potassium chloride concentration of not less than 0.75 wt % and less than 0.8 wt %)”. The off-taste suppressing effect ([2]; 0.8 wt % potassium chloride aqueous solution, addition concentration 500 weight ppb (62.5 weight ppm with respect to potassium chloride)) was “++ (intensity of the same level as potassium chloride aqueous solution with potassium chloride concentration of not less than 0.7 wt % and less than 0.75 wt %)”, the off-taste suppressing effect ([2]; 0.8 wt % potassium chloride aqueous solution, addition concentration 1000 weight ppb (125 weight ppm with respect to potassium chloride)) was “++ (intensity of the same level as potassium chloride aqueous solution with potassium chloride concentration of not less than 0.7 wt % and less than 0.75 wt %)” and the off-taste suppressing effect ([2]; 0.8 wt % potassium chloride aqueous solution, addition concentration 2000 weight ppb (250 weight ppm with respect to potassium chloride)) was “++ (intensity of the same level as potassium chloride aqueous solution with potassium chloride concentration of not less than 0.7 wt % and less than 0.75 wt %)”. The off-taste suppressing effect [2, 13] was “high”, the “intensity … from potassium chloride” value [2, 14] was “decreased” and the off-taste suppressing effect [3, 16] was “++ (intensity of the same level as potassium chloride aqueous solution with potassium chloride concentration of not less than 0.7 wt % and less than 0.75 wt %)”. For the same compound, the “intensity … from potassium chloride” value [3] was “decreased”, the off-taste suppressing effect [4, 16] was “++ (intensity of the same level as potassium chloride aqueous solution with potassium chloride concentration of not less than 0.7 wt % and less than 0.75 wt %)” and the “intensity of off-tastes … from sodium acetate” value [5] was “suppressed”. For the same compound, the “intensity of off-tastes … from methyl cellulose” value [6] was “suppressed”, the “intensity of off-tastes … from soy protein” value [7] was “suppressed” and the “intensity of off-tastes … from pea protein” value [8] was “suppressed”.
